Test system: P12-Ichikawa
Test: cell viability relative to DMSO control; higher = less cytotoxic
Details: 48 h
Procedure, shortened: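 Viability, reported as a per-plate percentage of DMSO wells with cell-free wells as background, came from CellTiter-Glo One luminescence. Reading took place after 48 h at 37°C. Before that, NOMO1 or SEM (500 cells/well) or P12-Ichikawa (1000 cells/well) leukemia cells, adapted for at least four passages in each medium, were seeded in 1536-well plates (5 μl) and pin-dosed with library compounds in DMSO, 47 μM to 0.79 nM over 11 threefold points.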

[1] = HPLM + 10% dialyzed FBS, 0.000781 µM
[2] = HPLM + 10% dialyzed FBS, 0.00234 µM
[3] = HPLM + 10% dialyzed FBS, 0.00702 µM
[4] = HPLM + 10% dialyzed FBS, 0.0211 µM
[5] = HPLM + 10% dialyzed FBS, 0.0632 µM
[6] = HPLM + 10% dialyzed FBS, 0.19 µM
[7] = HPLM + 10% dialyzed FBS, 0.569 µM
[8] = HPLM + 10% dialyzed FBS, 1.71 µM
[9] = HPLM + 10% dialyzed FBS, 5.12 µM
[10] = HPLM + 10% dialyzed FBS, 15.4 µM
[11] = HPLM + 10% dialyzed FBS, 46.1 µM
[12] = RPMI 5 mM glucose + 10% FBS, 0.000781 µM
[13] = RPMI 5 mM glucose + 10% FBS, 0.00234 µM
[14] = RPMI 5 mM glucose + 10% FBS, 0.00702 µM
[15] = RPMI 5 mM glucose + 10% FBS, 0.0211 µM
[16] = RPMI 5 mM glucose + 10% FBS, 0.0632 µM
[17] = RPMI 5 mM glucose + 10% FBS, 0.19 µM
[18] = RPMI 5 mM glucose + 10% FBS, 0.569 µM
[19] = RPMI 5 mM glucose + 10% FBS, 1.71 µM
[20] = RPMI 5 mM glucose + 10% FBS, 5.12 µM
[21] = RPMI 5 mM glucose + 10% FBS, 15.4 µM
[22] = RPMI 5 mM glucose + 10% FBS, 46.1 µM
[23] = RPMI 5 mM glucose + 10% dialyzed FBS, 0.000781 µM
[24] = RPMI 5 mM glucose + 10% dialyzed FBS, 0.00234 µM
[25] = RPMI 5 mM glucose + 10% dialyzed FBS, 0.00702 µM
[26] = RPMI 5 mM glucose + 10% dialyzed FBS, 0.0211 µM
[27] = RPMI 5 mM glucose + 10% dialyzed FBS, 0.0632 µM
[28] = RPMI 5 mM glucose + 10% dialyzed FBS, 0.19 µM
[29] = RPMI 5 mM glucose + 10% dialyzed FBS, 0.569 µM
[30] = RPMI 5 mM glucose + 10% dialyzed FBS, 1.71 µM
[31] = RPMI 5 mM glucose + 10% dialyzed FBS, 5.12 µM
[32] = RPMI 5 mM glucose + 10% dialyzed FBS, 15.4 µM
[33] = RPMI 5 mM glucose + 10% dialyzed FBS, 46.1 µM

Compound | cell viability [1] | cell viability [2] | cell viability [3] | cell viability [4] | cell viability [5] | cell viability [6] | cell viability [7] | cell viability [8] | cell viability [9] | cell viability [10] | cell viability [11] | cell viability [12] | cell viability [13] | cell viability [14] | cell viability [15] | cell viability [16] | cell viability [17] | cell viability [18] | cell viability [19] | cell viability [20] | cell viability [21] | cell viability [22] | cell viability [23] | cell viability [24] | cell viability [25] | cell viability [26] | cell viability [27] | cell viability [28] | cell viability [29] | cell viability [30] | cell viability [31] | cell viability [32] | cell viability [33]
CN(C)CCN1C(=O)c2cccc3cc(N)cc(c23)C1=O | 104% | 113% | 108% | 109% | 111% | 114% | 115% | 113% | 104% | 74.8% | 7.88% | 101% | 113% | 107% | 113% | 122% | 116% | 125% | 102% | 92.4% | 54.7% | 5.84% | 105% | 112% | 108% | 102% | 118% | 130% | 120% | 101% | 89.2% | 77.9% | 11.8%
O=C1NC(=O)/C(=C/c2ccc(-c3ccc(F)cc3O)o2)S1 | 113% | 117% | 116% | 121% | 112% | 116% | 108% | 107% | 97.7% | 97.9% | 89.7% | 116% | 117% | 112% | 112% | 112% | 111% | 102% | 90.4% | 90.1% | 80% | 65.7% | 115% | 120% | 121% | 117% | 117% | 121% | 117% | 88.2% | 89.5% | 84.3% | 72.4%
N[S+](=O)([O-])OC[C@@H]1C[C@@H](n2ccc3c(N[C@H]4CCc5ccccc54)ncnc32)C[C@@H]1O | 95.1% | 102% | 110% | 102% | 113% | 118% | 116% | 82.2% | 38.3% | 16.1% | 12.7% | 107% | 105% | 107% | 126% | 108% | 120% | 116% | 61.5% | 31.2% | 9.99% | 8.16% | 97.4% | 111% | 106% | 110% | 98.2% | 106% | 100% | 54.1% | 34.4% | 12.3% | 11.2%
CON(C)C(=O)N1/N=C(S[C@@]1(CCCN)C2=CC=CC=C2)/C3=CC(=CC=C3F)F | 102% | 118% | 122% | 83.1% | 12.1% | 10.6% | 10.1% | 10.1% | 9% | 11.4% | 10.7% | 101% | 114% | 123% | 61.1% | 13.7% | 12.6% | 14.3% | 10.8% | 8.36% | 9.67% | 11.1% | – | – | – | – | – | – | – | – | – | – | –
CCOc1ccc(Cc2cc([C@@H]3O[C@H](CO)[C@@H](O)[C@H](O)[C@H]3O)ccc2Cl)cc1 | 123% | 124% | 120% | 84.8% | 125% | 134% | 129% | 123% | 127% | 126% | 123% | – | – | – | – | – | – | – | – | – | – | – | – | – | – | – | – | – | – | – | – | – | –
NC/1=N/C(=O)N(/C=N1)[C@@H]2O[C@H](CO)[C@@H](O)[C@H]2O | 108% | 104% | 102% | 107% | 85.2% | 114% | 104% | 109% | 77% | 55.1% | 22.6% | 107% | 102% | 102% | 98.7% | 88.1% | 113% | 104% | 107% | 91.1% | 59% | 43.2% | 97.1% | 107% | 114% | 116% | 94.7% | 103% | 105% | 104% | 89.6% | 56% | 26.8%
CC(O)C1C2C(C)\C(=C(/N2C1=O)C(O)=O)SC3CNC(C3)C(=O)N(C)C (stereo not drawn) | 84% | 82.1% | 86.8% | 88.3% | 93.2% | 92.9% | 99.6% | 96.5% | 90.4% | 92.8% | 88.1% | 77.1% | 78.2% | 79.4% | 81.7% | 82.3% | 85.5% | 82.7% | 77.6% | 84.7% | 88.2% | 85.6% | 85.7% | 80% | 85.8% | 88% | 88.8% | 89.2% | 86.2% | 86.2% | 86.5% | 88.2% | 95.5%

— the supplement of paper PMC11451515
